# Laboratory results published in patent US12492181B2, “Gem-disubstituted piperidine melanocortin subtype-2 receptor (MC2R) antagonists and uses thereof” (Crinetics Pharmaceuticals, Inc., priority 2019, dated 2025).
# pKi: −log10 of the molar value.
# Molecular target: T1, hMC2 receptor (crude hMC2R membranes from CRE-bla-CHO-K1 cells stably expressing hMC2 receptor and hMRAP accessory protein) (Homo sapiens, UniProt Q01718)
# T1 construct: crude membrane fractions
# Experiment: hMC2 membrane binding assay ([125I]ACTH (1-39) Tyr23, SPA)
# Details: displacement of 0.2 nM [125I]ACTH (1-39) Tyr23 from hMC2R membranes, 1.5 hours at room temperature; read-out: MC2R binding potency
# In short: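 Crude membranes from CRE-bla-CHO-K1 cells stably co-expressing hMC2R and hMRAP, premixed with WGA PVT SPA beads in pH 7.4 HEPES buffer (5 mM MgCl2, 1 mM CaCl2, 0.20% BSA, protease inhibitors). Compounds compete with [125I]ACTH(1-39) Tyr23, read by scintillation. Ki from non-linear regression.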
# T1 sequence (Q01718 whole entry): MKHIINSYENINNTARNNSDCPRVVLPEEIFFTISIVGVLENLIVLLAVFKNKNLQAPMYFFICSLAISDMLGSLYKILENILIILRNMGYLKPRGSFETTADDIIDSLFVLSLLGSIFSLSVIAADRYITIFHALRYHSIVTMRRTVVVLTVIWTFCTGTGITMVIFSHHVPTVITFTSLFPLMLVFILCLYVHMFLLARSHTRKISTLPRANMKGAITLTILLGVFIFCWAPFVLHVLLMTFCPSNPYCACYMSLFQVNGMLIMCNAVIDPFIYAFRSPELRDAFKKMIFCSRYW
# T1 sequence (Q8TCY5 whole entry partner): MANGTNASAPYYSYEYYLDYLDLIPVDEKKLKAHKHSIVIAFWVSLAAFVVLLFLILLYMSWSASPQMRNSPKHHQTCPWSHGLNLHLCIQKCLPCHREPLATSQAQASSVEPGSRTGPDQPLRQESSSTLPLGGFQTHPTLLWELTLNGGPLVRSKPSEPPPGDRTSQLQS
row,pKi,Molecule
1,> 8.00,"CN1CC(C(=O)NC2(c3ccc(-c4cccn4C)nc3)CCN(c3ccc(C(F)(F)F)cc3C#N)CC2)C1 [Compound 2-45, N-{1-[2-cyano-4-(trifluoromethyl)phenyl]-4-[6-(1-methyl-1H-pyrrol-2-yl)pyridin-3-yl]piperidin-4-yl}-1-methylazetidine-3-carboxamide]"
2,> 8.00,"CCOc1ccccc1-c1ccc(C2(C(=O)N[C@H]3CCN(C)C3)CCN(c3ccc(C(F)(F)F)cc3F)CC2)nn1 [Compound 1-174, 4-[6-(2-ethoxyphenyl)pyridazin-3-yl]-1-[2-fluoro-4-(trifluoromethyl)phenyl]-N-[(3S)-1-methylpyrrolidin-3-yl]piperidine-4-carboxamide]"
3,> 8.00,"CN1CC[C@@H](NC(=O)C2(c3ccc(-c4ccccc4F)nc3)CCN(c3ccc(C(F)(F)F)cc3C#N)CC2)C1 [Compound 1-74, 1-[2-cyano-4-(trifluoromethyl)phenyl]-4-[6-(2-fluorophenyl)pyridin-3-yl]-N-[(3R)-1-methylpyrrolidin-3-yl]piperidine-4-carboxamide]"
4,7.00 to 8.00,"CN1CCC[C@H]1CNC(=O)C1(c2ccc(-c3cccn3C)nc2)CCN(c2ccc(C(F)(F)F)cc2C#N)CC1 [Compound 1-229, 1-[2-cyano-4-(trifluoromethyl)phenyl]-4-[6-(1-methyl-1H-pyrrol-2-yl)pyridin-3-yl]-N-{[(2S)-1-methylpyrrolidin-2-yl]methyl}piperidine-4-carboxamide]"
5,> 8.00,"CN1CC[C@H](NC(=O)NC2(c3ccc(-c4cccn4C)nc3)CCN(c3ccc(C(F)(F)F)cc3C#N)CC2)C1 [Compound 2-43, 1-{1-[2-cyano-4-(trifluoromethyl)phenyl]-4-[6-(1-methyl-1H-pyrrol-2-yl)pyridin-3-yl]piperidin-4-yl}-3-[(3S)-1-methylpyrrolidin-3-yl]urea]"
6,> 8.00,"COc1ncc(F)cc1-c1ccc(C2(C(=O)N[C@H]3CCN(C)C3)CCN(c3ccc(C(F)(F)F)cc3Cl)CC2)cn1 [Compound 1-154, 1-[2-chloro-4-(trifluoromethyl)phenyl]-4-{5′-fluoro-2′-methoxy-[2,3′-bipyridin]-5-yl}-N-[(3S)-1-methylpyrrolidin-3-yl]piperidine-4-carboxamide]"
7,> 8.00,"CCn1nccc1-c1ccc(C2(C(=O)N[C@@H]3CCN(C)C3)CCN(c3ccc(C(F)(F)F)cc3C#N)CC2)cn1 [Compound 1-62, 1-[2-cyano-4-(trifluoromethyl)phenyl]-4-[6-(1-ethyl-1H-pyrazol-5-yl)pyridin-3-yl]-N-[(3R)-1-methylpyrrolidin-3-yl]piperidine-4-carboxamide]"
8,> 8.00,"CNCCNC(=O)C1(c2ccc(-c3cccn3C)nc2)CCN(c2ccc(C(F)(F)F)cc2Cl)CC1 [Compound 1-283, 1-[2-chloro-4-(trifluoromethyl)phenyl]-4-[6-(1-methyl-1H-pyrrol-2-yl)pyridin-3-yl]-N-[2-(methylamino)ethyl]piperidine-4-carboxamide]"
9,> 8.00,"CCOc1ncccc1-c1ncc(C2(C(=O)N[C@@H](C)CN(C)C)CCN(c3ccc(C(F)(F)F)cc3F)CC2)cc1F [Compound 1-312, N-[(2S)-1-(dimethylamino)propan-2-yl]-4-{2′-ethoxy-3-fluoro-[2,3′-bipyridin]-5-yl}-1-[2-fluoro-4-(trifluoromethyl)phenyl]piperidine-4-carboxamide]"
10,> 8.00,"CCOc1ncccc1-c1ccc(C2(C(=O)N[C@H]3CCN(C)C3)CCN(c3ncc(C(F)(F)F)cc3C#N)CC2)cn1 [Compound 1-42, 1-[3-cyano-5-(trifluoromethyl)pyridin-2-yl]-4-{2′-ethoxy-[2,3′-bipyridin]-5-yl}-N-[(3S)-1-methylpyrrolidin-3-yl]piperidine-4-carboxamide]"

# More lines, now with the values behind:
row,Molecule,pKi
1,"CCOc1ncccc1-c1ccc(C2(OC(=O)NCCN(C)C)CCN(c3ccc(C(F)(F)F)cc3C#N)CC2)cc1 [Compound 2-2, 1-[2-cyano-4-(trifluoromethyl)phenyl]-4-[4-(2-ethoxypyridin-3-yl)phenyl]piperidin-4-yl N-[2-(dimethylamino)ethyl]carbamate]",7.00 to 8.00
2,"CCOc1ncccc1-c1ccc(C2(C(=O)N[C@@H]3CCN(C)C3)CCN(c3ccc(C(F)(F)F)cc3OC)CC2)cc1 [Compound 1-159, 4-[4-(2-ethoxypyridin-3-yl)phenyl]-1-[2-methoxy-4-(trifluoromethyl)phenyl]-N-[(3R)-1-methylpyrrolidin-3-yl]piperidine-4-carboxamide]",7.00 to 8.00
3,"CN1CC[C@@H](NC(=O)C2(c3ccc(-c4cccc5c4OCC5)nc3)CCN(c3ccc(C(F)(F)F)cc3C#N)CC2)C1 [Compound 1-53, 1-[2-cyano-4-(trifluoromethyl)phenyl]-4-[6-(2,3-dihydro-1-benzofuran-7-yl)pyridin-3-yl]-N-[(3R)-1-methylpyrrolidin-3-yl]piperidine-4-carboxamide]",7.00 to 8.00
4,"CN1CC[C@@H](NC(=O)C2(c3ccc(-c4cccn4C)nc3)CCN(c3ccc(C(F)(F)F)cc3C#N)CC2)C1 [Compound 1-88, 1-[2-cyano-4-(trifluoromethyl)phenyl]-4-[6-(1-methyl-1H-pyrrol-2-yl)pyridin-3-yl]-N-[(3R)-1-methylpyrrolidin-3-yl]piperidine-4-carboxamide]",> 8.00
5,"CN1CC[C@@H](NC(=O)C2(c3ccc(-c4ccnn4C)nc3)CCN(c3ccc(C(F)(F)F)cc3C#N)CC2)C1 [Compound 1-43, 1-[2-cyano-4-(trifluoromethyl)phenyl]-4-[6-(1-methyl-1H-pyrazol-5-yl)pyridin-3-yl]-N-[(3R)-1-methylpyrrolidin-3-yl]piperidine-4-carboxamide]",> 8.00
6,"(3R)-1-methylpyrrolidin-3-yl N-{1-[2-cyano-4-(trifluoromethyl)phenyl]-4-{2′-ethoxy-[2,3′-bipyridin]-5-yl}piperidin-4-yl}carbamate [Compound 2-22]",> 8.00
7,"CCOc1ccccc1-c1ccc(C2(NC(=O)[C@@H]3CCN(C)C3)CCN(c3ccc(C(F)(F)F)cc3C#N)CC2)cn1 [Compound 2-33, (3R)—N-{1-[2-cyano-4-(trifluoromethyl)phenyl]-4-[6-(2-ethoxyphenyl)pyridin-3-yl]piperidin-4-yl}-1-methylpyrrolidine-3-carboxamide]",> 8.00
8,"CCOc1ccccc1-c1ccc(C2(C(=O)N[C@H]3CCN(C)C3)CCN(c3ccc(Cl)cc3C#N)CC2)cn1 [Compound 1-90, 1-(4-chloro-2-cyanophenyl)-4-[6-(2-ethoxyphenyl)pyridin-3-yl]-N-[(3S)-1-methylpyrrolidin-3-yl]piperidine-4-carboxamide]",> 8.00
9,"Cn1cccc1-c1ccc(C2(C(=O)NC34CCN(CC3)C4)CCN(c3ccc(C(F)(F)F)cc3C#N)CC2)cn1 [Compound 1-221, N-{1-azabicyclo[2.2.1]heptan-4-yl}-1-[2-cyano-4-(trifluoromethyl)phenyl]-4-[6-(1-methyl-1H-pyrrol-2-yl)pyridin-3-yl]piperidine-4-carboxamide]",7.00 to 8.00
10,"CCOc1ncccc1-c1ccc(C2(C(=O)NC[C@H](C)N)CCN(c3ccc(C(F)(F)F)cc3C#N)CC2)cc1 [Compound 1-6, N-[(2S)-2-aminopropyl]-1-[2-cyano-4-(trifluoromethyl)phenyl]-4-[4-(2-ethoxypyridin-3-yl)phenyl]piperidine-4-carboxamide]",7.00 to 8.00
11,"CCOc1ccccc1-c1ccc(C2(C(=O)N[C@H]3CCN(C)C3)CCN(c3c(F)cc(Cl)cc3C#N)CC2)cn1 [Compound 1-111, 1-(4-chloro-2-cyano-6-fluorophenyl)-4-[6-(2-ethoxyphenyl)pyridin-3-yl]-N-[(3S)-1-methylpyrrolidin-3-yl]piperidine-4-carboxamide]",> 8.00
12,"CN(CCNC(=O)C1(c2ccc(-c3cccn3C)nc2)CCN(c2ccc(C(F)(F)F)cc2C#N)CC1)C1CC1 [Compound 1-266, 1-[2-cyano-4-(trifluoromethyl)phenyl]-N-{2-[cyclopropyl(methyl)amino]ethyl}-4-[6-(1-methyl-1H-pyrrol-2-yl)pyridin-3-yl]piperidine-4-carboxamide]",> 8.00
13,"CN1CC[C@@H](NC(=O)C2(c3ccc(-c4cccc5ccoc45)nc3)CCN(c3ccc(C(F)(F)F)cc3C#N)CC2)C1 [Compound 1-54, 4-[6-(1-benzofuran-7-yl)pyridin-3-yl]-1-[2-cyano-4-(trifluoromethyl)phenyl]-N-[(3R)-1-methylpyrrolidin-3-yl]piperidine-4-carboxamide]",7.00 to 8.00
14,"CCOc1ncccc1-c1cnc(C2(C(=O)N[C@@H]3CCN(C)C3)CCN(c3ccc(C(F)(F)F)cc3C#N)CC2)cn1 [Compound 1-51, 1-[2-cyano-4-(trifluoromethyl)phenyl]-4-[5-(2-ethoxypyridin-3-yl)pyrazin-2-yl]-N-[(3R)-1-methylpyrrolidin-3-yl]piperidine-4-carboxamide]",> 8.00
15,"CN1CC[C@H](NC(=O)C2(c3cnc(-c4cccn4C)c(F)c3)CCN(c3ccc(C(F)(F)F)cc3Cl)CC2)C1 [Compound 1-162, 1-[2-chloro-4-(trifluoromethyl)phenyl]-4-[5-fluoro-6-(1-methyl-1H-pyrrol-2-yl)pyridin-3-yl]-N-[(3S)-1-methylpyrrolidin-3-yl]piperidine-4-carboxamide]",> 8.00
16,"CN1CC[C@H](C(=O)NC2(c3ccc(-c4cccn4C)nc3)CCN(c3ccc(C(F)(F)F)cc3C#N)CC2)C1 [Compound 2-46, (3S)—N-{1-[2-cyano-4-(trifluoromethyl)phenyl]-4-[6-(1-methyl-1H-pyrrol-2-yl)pyridin-3-yl]piperidin-4-yl}-1-methylpyrrolidine-3-carboxamide]",> 8.00
17,"CCOc1ncccc1-c1ncc(C2(C(=O)N[C@@H](C)CNC)CCN(c3ccc(C(F)(F)F)cc3F)CC2)cc1F [Compound 1-315, 4-{2′-ethoxy-3-fluoro-[2,3′-bipyridin]-5-yl}-1-[2-fluoro-4-(trifluoromethyl)phenyl]-N-[(2S)-1-(methylamino)propan-2-yl]piperidine-4-carboxamide]",> 8.00
